Laboratory results taken from patent publication US10670605B2, “Cysteine reactive probes and uses thereof” (The Scripps Research Institute, priority 2015, dated 2020).

Tests used:
ACAT1 C126 (P24752) = molecular target: T1, ACAT1 C126 (P24752) (Homo sapiens, UniProt P24752); assay: Competitive isoTOP-ABPP, cell lysates; type: binding; settings: 500 μm, in-vitro_ramos_231
T1 sequence (P24752 34-427): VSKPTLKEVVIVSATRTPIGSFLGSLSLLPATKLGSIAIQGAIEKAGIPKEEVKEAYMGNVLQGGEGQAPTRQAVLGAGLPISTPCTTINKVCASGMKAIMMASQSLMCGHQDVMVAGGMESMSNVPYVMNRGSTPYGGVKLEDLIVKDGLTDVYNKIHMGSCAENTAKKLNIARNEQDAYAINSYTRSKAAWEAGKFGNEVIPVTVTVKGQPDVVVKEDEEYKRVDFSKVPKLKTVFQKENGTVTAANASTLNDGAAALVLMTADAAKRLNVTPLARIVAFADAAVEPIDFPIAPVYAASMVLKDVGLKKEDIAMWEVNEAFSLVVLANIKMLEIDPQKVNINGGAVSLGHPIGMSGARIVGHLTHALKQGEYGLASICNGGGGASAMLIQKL

O00541_C272 = O00541_C272 (Homo sapiens, UniProt O00541); assay: Competitive isoTOP-ABPP, cell lysates; type: binding; settings: 500 μm, in-vitro_ramos_231
ACAT1 C196 (P24752) = molecular target: T2, ACAT1 C196 (P24752) (Homo sapiens, UniProt P24752); assay: Competitive isoTOP-ABPP, cell lysates; type: binding; settings: 500 μm, in-vitro_ramos_231
T2 sequence (P24752 34-427): T1 sequence (P24752 34-427)

PDIA6 C55 (Q15084) = molecular target: T3, PDIA6 C55 (Q15084) (Homo sapiens, UniProt Q15084); assay: Competitive isoTOP-ABPP, cell lysates; type: binding; settings: 500 μm, in-vitro_ramos_231
T3 sequence (Q15084 20-440): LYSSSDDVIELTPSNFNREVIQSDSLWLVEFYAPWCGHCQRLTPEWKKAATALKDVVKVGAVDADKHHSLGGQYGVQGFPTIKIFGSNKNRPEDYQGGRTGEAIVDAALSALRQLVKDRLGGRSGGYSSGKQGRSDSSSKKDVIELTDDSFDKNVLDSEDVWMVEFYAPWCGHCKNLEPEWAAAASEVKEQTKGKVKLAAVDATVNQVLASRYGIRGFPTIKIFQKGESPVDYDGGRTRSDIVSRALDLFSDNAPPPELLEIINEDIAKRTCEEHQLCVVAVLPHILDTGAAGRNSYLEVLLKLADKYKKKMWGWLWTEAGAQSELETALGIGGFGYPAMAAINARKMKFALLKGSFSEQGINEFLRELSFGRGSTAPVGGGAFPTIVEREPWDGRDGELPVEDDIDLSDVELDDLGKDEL
Method: (§1) TEV digests were pressure loaded onto a 250 μm (inner diameter) fused silica capillary column packed with C18 resin (Aqua 5 μm, Phenomenex). The samples were analyzed by multidimensional liquid chromatography tandem mass spectrometry (MudPIT), using an LTQ-Velos Orbitrap mass spectrometer (Thermo Scientific) coupled to an Agilent 1200-series quaternary pump. The peptides were eluted onto a biphasic column with a 5 μm tip (100 μm fused silica, packed with C18 (10 cm) and bulk strong cation exchange resin (3 cm, SCX, Phenomenex,)) in a 5-step MudPIT experiment, using 0%, 30%, 60%, 90%, and 100% salt bumps of 500 mM aqueous ammonium acetate and using a gradient of 5-100% buffer B in buffer A (buffer A: 95% water, 5% acetonitrile, 0.1% formic acid; buffer B: 5% water, 95% acetonitrile, 0.1% formic acid) as has been described in Weerapana et al. Nat Protoc 2:1414-1425 (2007). Data was collected in data-dependent acquisition mode with dynamic exclusion enabled (20 s, repeat of 2). One full MS (MS1) scan (400-1800 m/z) was followed by 30 MS2 scans (ITMS) of the nth most abundant ions.
(§2) The ratios of heavy/light for each unique peptide (DMSO/compound treated; isoTOP-ABPP ratios, R values) were quantified with in-house CIMAGE software, using default parameters (3 ms s per peak and signal to noise threshold 2.5). Site-specific engagement of electrophilic fragments was assessed by blockade of IA-alkyne probe labeling. […] Ratios for unique peptide entries were calculated for each experiment; overlapping peptides with the same modified cysteine (e.g. different charge states, MudPIT chromatographic steps or tryptic termini) were grouped together and the median ratio was reported as the final ratio (R). The peptide ratios reported by CIMAGE were further filtered to ensure the removal or correction of low quality ratios in each individual dataset. The quality filters applied were the following: removal of half tryptic peptides; for ratios with high standard deviations from the median (90% of the median or above) the lowest ratio was taken instead of the median; removal of peptides with R=20 and only a single ms2 event triggered during the elution of the parent ion; manual annotation of all the peptides with ratios of 20, removing any peptides with low-quality elution profiles that remained after the previous curation steps. Proteome reactivity values for individual fragments were computed as the percentage of the total quantified cysteine-containing peptides with R values≥4 (defined as liganded cysteines) for each replicate experiment and the final proteome reactivity value was calculated as the mean for all replicate experiments for each fragment from both MDA-MB-231 and Ramos cellular proteomes.
(§3) Biological replicates of the same compound and cell-line were averaged if the standard deviation was below 60% of the mean; otherwise the lowest value of the ratio set was taken.

UBE2L3 C86 (P68036) = UBE2L3 C86 (P68036) (Homo sapiens, UniProt P68036); assay: Competitive isoTOP-ABPP, cell lysates; type: binding; settings: 500 μm, in-vitro_ramos_231;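 note: Heavy/light ratio DMSO over fragment-treated so higher means more cysteine engagement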
Method: as §1, §2, §3

MLTK C22 (Q9NYL2) = MLTK C22 (Q9NYL2) (Homo sapiens, UniProt Q9NYL2); assay: Competitive isoTOP-ABPP, cell lysates; type: binding; settings: 500 μm, in-vitro_ramos_231
Method: as §1, §2, §3

XPO1 C34 (O14980) = XPO1 C34 (O14980) (Homo sapiens, UniProt O14980); assay: Competitive isoTOP-ABPP, cell lysates; type: binding; settings: 500 μm, in-vitro_ramos_231
Method: as §1, §2, §3

GSTP1 C48 (P09211) = GSTP1 C48 (P09211) (Homo sapiens, UniProt P09211); assay: Competitive isoTOP-ABPP, cell lysates; type: binding; settings: 500 μm, in-vitro_ramos_231;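 note: Heavy/light ratio DMSO over fragment-treated so higher means more cysteine engagement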
Method: as §1, §2, §3

PRMT1 C109 (Q99873) = PRMT1 C109 (Q99873) (Homo sapiens, UniProt Q99873); assay: Competitive isoTOP-ABPP, cell lysates; type: binding; settings: 500 μm, in-vitro_ramos_231;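 note: Heavy/light ratio DMSO over fragment-treated so higher means more cysteine engagement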
Method: as §1, §2, §3

GNB2L1 C182 (P63244) = GNB2L1 C182 (P63244) (Homo sapiens, UniProt P63244); assay: Competitive isoTOP-ABPP, cell lysates; type: binding; settings: 500 μm, in-vitro_ramos_231;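 note: Heavy/light ratio DMSO over fragment-treated so higher means more cysteine engagement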
Method: as §1, §2, §3

ACAT1 C413 (P24752) = molecular target: T4, ACAT1 C413 (P24752) (Homo sapiens, UniProt P24752); assay: Competitive isoTOP-ABPP, cell lysates; type: binding; settings: 500 μm, in-vitro_ramos_231
T4 sequence (P24752 34-427): T1 sequence (P24752 34-427)

ACAT1 C119 (P24752) = molecular target: T5, ACAT1 C119 (P24752) (Homo sapiens, UniProt P24752); assay: Competitive isoTOP-ABPP, cell lysates; type: binding; settings: 500 μm, in-vitro_ramos_231
T5 sequence (P24752 34-427): T1 sequence (P24752 34-427)

[1] = system: protein targets in MDA-MB-231 cells; assay: Whole protein capture with click probes (SILAC proteomics), native vs heat denatured; type: binding, human; settings: proteins liganded by parent fragment (3 / 14) and enriched by click probe (19 / 18)
Method: Protein enrichment by 18 and 19 was measured by whole protein capture of isotopically-SILAC labeled MDA-MB-231 cells using quantitative (SILAC) proteomics.

IMPDH2 (C140) = assay: Click probe 18 labeling of recombinant IMPDH2 and its competition; type: binding, human; settings: probe 25 μM

SMILES | isoTOP-ABPP reactivity profile ratio, P24752_C126 (ACAT1 C126 (P24752)) | isoTOP-ABPP reactivity profile ratio, O00541_C272 (O00541_C272) | isoTOP-ABPP reactivity profile ratio, P24752_C196 (ACAT1 C196 (P24752)) | isoTOP-ABPP reactivity profile ratio, Q15084_C55 (PDIA6 C55 (Q15084)) | isoTOP-ABPP reactivity profile ratio, P68036_C86 (UBE2L3 C86 (P68036)) | isoTOP-ABPP reactivity profile ratio, Q9NYL2_C22 (MLTK C22 (Q9NYL2)) | isoTOP-ABPP reactivity profile ratio, O14980_C34 (XPO1 C34 (O14980)) | isoTOP-ABPP reactivity profile ratio, P09211_C48 (GSTP1 C48 (P09211)) | isoTOP-ABPP reactivity profile ratio, Q99873_C109 (PRMT1 C109 (Q99873)) | isoTOP-ABPP reactivity profile ratio, P63244_C182 (GNB2L1 C182 (P63244)) | isoTOP-ABPP reactivity profile ratio, P24752_C413 (ACAT1 C413 (P24752)) | isoTOP-ABPP reactivity profile ratio, P24752_C119 (ACAT1 C119 (P24752)) | percentage of quantified protein targets sensitive to heat denaturation [1] | direct labeling of IMPDH2 WT and mutants by click probe (IMPDH2 (C140))
CCCN(C(=O)CCl)c1c(N)n(CCC)c(=O)[nH]c1=O [compound 55] | 0.9 | 1.0 | 1.0 | 0.9 | 1.0 | 1.2 | 0.9 | 1.4 | 1.0 | 1.0 | 1.0 | 0.9 | – | –
C#CCCCCNC(=O)c1cc(NC(=O)C=C)cc(C(F)(F)F)c1 [compound 18] | – | – | – | – | – | – | – | – | – | – | – | – | 73% | labeled WT-IMPDH2 and a C331S-IMPDH2 mutant, but not the C140S or C140S/C331S mutants
